Values joined by “and” are separate entries in the source; they are usually repeats but may differ in a detail not shown here. Equal values may be shown once. Read-outs that look alike come from different tables or passages of the source.
Tested on: s.c. HER2(+) BT-474 tumors
Assay type: in vivo, mouse
Details: 24 h p.i.
[1] = PRIT + CA 62.5 μg, 55.5 MBq (~300 pmol), mean ± SEM
[2] = PRIT + CA 62.5 μg, ~5.6 MBq (~30 pmol), mean ± SEM
[3] = PRIT, CA 0% (saline), mean ± SD
[4] = PRIT, CA 7.5% w/w 18.75 μg, mean ± SD
[5] = PRIT, CA 14% w/w 37.5 μg, mean ± SD
[6] = PRIT, CA 28% w/w 70 μg, mean ± SD

## Nc1ccc(CC2CN(CC(=O)[O-])CCN(CC(=O)[O-])CCN(CC(=O)[O-])CCN2CC(=O)[O-])cc1.[177Lu+3] (centres unmarked) [^177Lu-DOTA-Bn]
[1]
  ^177Lu activity in Blood: 0.29±0.05 % IA/g
  ^177Lu activity in Bone: 0.04 ± 0.01 % IA/g
  ^177Lu activity in Heart: 0.11 ± 0.02 % IA/g
  ^177Lu activity in Kidneys: 0.56±0.08 % IA/g
  ^177Lu activity in Large Int.: 0.20 ± 0.11 % IA/g
  ^177Lu activity in Liver: 0.33 ± 0.04 % IA/g
  ^177Lu activity in Lungs: 0.20 ± 0.02 % IA/g
  ^177Lu activity in Muscle: 0.04 ± 0.01 % IA/g
  ^177Lu activity in Small Int.: 0.05 ± 0.01 % IA/g
  ^177Lu activity in Spleen: 0.22 ± 0.07 % IA/g
  ^177Lu activity in Stomach: 0.04 ± 0.01 % IA/g
  ^177Lu activity in Tumor: 5.53±0.27 % IA/g
[2]
  ^177Lu activity in Blood: 0.28±0.09 % IA/g
  ^177Lu activity in Bone: 0.04 ± 0.01 % IA/g
  ^177Lu activity in Heart: 0.07 ± 0.02 % IA/g
  ^177Lu activity in Kidneys: 0.73±0.05 % IA/g
  ^177Lu activity in Large Int.: 0.18 ± 0.01 % IA/g
  ^177Lu activity in Liver: 0.27 ± 0.07 % IA/g
  ^177Lu activity in Lungs: 0.20 ± 0.05 % IA/g
  ^177Lu activity in Muscle: 0.06 ± 0.01 % IA/g
  ^177Lu activity in Small Int.: 0.05 ± 0.01 % IA/g
  ^177Lu activity in Spleen: 0.60 ± 0.21 % IA/g
  ^177Lu activity in Stomach: 0.06 ± 0.01 % IA/g
  ^177Lu activity in Tumor: 7.58±0.78 % IA/g
PRIT + no CA, mean ± SEM
  ^177Lu activity in Blood: 4.95 ± 0.58 % IA/g
  ^177Lu activity in Bone: 0.39 ± 0.08 % IA/g
  ^177Lu activity in Heart: 1.14 ± 0.14 % IA/g
  ^177Lu activity in Kidneys: 2.31 ± 0.26 % IA/g
  ^177Lu activity in Large Int.: 0.58 ± 0.06 % IA/g
  ^177Lu activity in Liver: 1.85 ± 0.15 % IA/g
  ^177Lu activity in Lungs: 2.11 ± 0.23 % IA/g
  ^177Lu activity in Muscle: 0.38 ± 0.04 % IA/g
  ^177Lu activity in Small Int.: 0.58 ± 0.06 % IA/g
  ^177Lu activity in Spleen: 1.00 ± 0.11 % IA/g
  ^177Lu activity in Stomach: 0.34 ± 0.04 % IA/g
  ^177Lu activity in Tumor: 19.94±1.7 % IA/g and 19.94 ± 1.77 % IA/g
[3]
  Tumor-to-tissue ratio, Blood: 4.0±1.2
  Tumor-to-tissue ratio, Bone: 50.8 ± 22.7
  Tumor-to-tissue ratio, Heart: 17.5 ± 5.4
  Tumor-to-tissue ratio, Kidneys: 8.6 ± 2.5
  Tumor-to-tissue ratio, Large Int.: 34.4 ± 9.3
  Tumor-to-tissue ratio, Liver: 10.8 ± 2.6
  Tumor-to-tissue ratio, Lungs: 9.5 ± 2.6
  Tumor-to-tissue ratio, Muscle: 52.1 ± 15.2
  Tumor-to-tissue ratio, Small Int.: 34.5 ± 9.3
  Tumor-to-tissue ratio, Spleen: 19.9 ± 5.5
  Tumor-to-tissue ratio, Stomach: 59.1 ± 18.8
  ^177Lu activity in Blood: 4.95±1.17 % IA/g
  ^177Lu activity in Bone: 0.39 ± 0.16 % IA/g
  ^177Lu activity in Heart: 1.14 ± 0.29 % IA/g
  ^177Lu activity in Kidneys: 2.31 ± 0.52 % IA/g
  ^177Lu activity in Large Int.: 0.58 ± 0.12 % IA/g
  ^177Lu activity in Liver: 1.85 ± 0.30 % IA/g
  ^177Lu activity in Lungs: 2.11 ± 0.45 % IA/g
  ^177Lu activity in Muscle: 0.38 ± 0.09 % IA/g
  ^177Lu activity in Small Int.: 0.58 ± 0.12 % IA/g
  ^177Lu activity in Spleen: 1.00 ± 0.21 % IA/g
  ^177Lu activity in Stomach: 0.34 ± 0.09 % IA/g
  ^177Lu activity in Tumor: 19.94±3.54 % IA/g
[4]
  Tumor-to-tissue ratio, Blood: 7.1 ± 4.1
  Tumor-to-tissue ratio, Bone: 80.6 ± 61.9
  Tumor-to-tissue ratio, Heart: 16.0 ± 9.6
  Tumor-to-tissue ratio, Kidneys: 9.7 ± 6.0
  Tumor-to-tissue ratio, Large Int.: 29.9 ± 10.7
  Tumor-to-tissue ratio, Liver: 15.0 ± 7.8
  Tumor-to-tissue ratio, Lungs: 15.8 ± 7.9
  Tumor-to-tissue ratio, Muscle: 67.5 ± 20.1
  Tumor-to-tissue ratio, Small Int.: 33.7 ± 19.2
  Tumor-to-tissue ratio, Spleen: 12.6 ± 3.3
  Tumor-to-tissue ratio, Stomach: 59.2 ± 17.0
  ^177Lu activity in Blood: 1.03 ± 0.58 % IA/g
  ^177Lu activity in Bone: 0.09 ± 0.07 % IA/g
  ^177Lu activity in Heart: 0.45 ± 0.27 % IA/g
  ^177Lu activity in Kidneys: 0.75 ± 0.46 % IA/g
  ^177Lu activity in Large Int.: 0.24 ± 0.08 % IA/g
  ^177Lu activity in Liver: 0.49 ± 0.25 % IA/g
  ^177Lu activity in Lungs: 0.46 ± 0.23 % IA/g
  ^177Lu activity in Muscle: 0.11 ± 0.03 % IA/g
  ^177Lu activity in Small Int.: 0.22 ± 0.12 % IA/g
  ^177Lu activity in Spleen: 0.58 ± 0.14 % IA/g
  ^177Lu activity in Stomach: 0.12 ± 0.03 % IA/g
  ^177Lu activity in Tumor: 7.26 ± 0.55 % IA/g
[5]
  Tumor-to-tissue ratio, Blood: 13.1 ± 5.1
  Tumor-to-tissue ratio, Bone: 159.0 ± 66.7
  Tumor-to-tissue ratio, Heart: 45.1 ± 18.9
  Tumor-to-tissue ratio, Kidneys: 8.7 ± 3.2
  Tumor-to-tissue ratio, Large Int.: 18.9 ± 10.9
  Tumor-to-tissue ratio, Liver: 14.6 ± 5.3
  Tumor-to-tissue ratio, Lungs: 19.6 ± 7.4
  Tumor-to-tissue ratio, Muscle: 84.5 ± 37.6
  Tumor-to-tissue ratio, Small Int.: 39.8 ± 21.2
  Tumor-to-tissue ratio, Spleen: 9.8 ± 4.4
  Tumor-to-tissue ratio, Stomach: 50.1 ± 20.7
  ^177Lu activity in Blood: 0.52 ± 0.08 % IA/g
  ^177Lu activity in Bone: 0.04 ± 0.01 % IA/g
  ^177Lu activity in Heart: 0.15 ± 0.03 % IA/g
  ^177Lu activity in Kidneys: 0.78 ± 0.09 % IA/g
  ^177Lu activity in Large Int.: 0.36 ± 0.16 % IA/g
  ^177Lu activity in Liver: 0.46 ± 0.04 % IA/g
  ^177Lu activity in Lungs: 0.35 ± 0.05 % IA/g
  ^177Lu activity in Muscle: 0.08 ± 0.02 % IA/g
  ^177Lu activity in Small Int.: 0.17 ± 0.07 % IA/g
  ^177Lu activity in Spleen: 0.69 ± 0.20 % IA/g
  ^177Lu activity in Stomach: 0.14 ± 0.03 % IA/g
  ^177Lu activity in Tumor: 6.76 ± 2.39 % IA/g
[6]
  Tumor-to-tissue ratio, Blood: 25.6 ± 13.9
  Tumor-to-tissue ratio, Bone: 63.5 ± 97.0
  Tumor-to-tissue ratio, Heart: 63.5 ± 35.2
  Tumor-to-tissue ratio, Kidneys: 9.4 ± 4.3
  Tumor-to-tissue ratio, Large Int.: 37.7 ± 18.5
  Tumor-to-tissue ratio, Liver: 21.2 ± 9.7
  Tumor-to-tissue ratio, Lungs: 28.5 ± 14.3
  Tumor-to-tissue ratio, Muscle: 84.6 ± 45.2
  Tumor-to-tissue ratio, Small Int.: 99.7 ± 47.9
  Tumor-to-tissue ratio, Spleen: 9.6 ± 4.9
  Tumor-to-tissue ratio, Stomach: 133.0 ± 76.7
  ^177Lu activity in Blood: 0.27 ± 0.08 % IA/g
  ^177Lu activity in Bone: 0.11 ± 0.16 % IA/g
  ^177Lu activity in Heart: 0.11 ± 0.04 % IA/g
